The values below come from patent publication US20050261162A1, “Pharmaceutical composition for preventing and treating cancer and treating an inflammation” (priority 2001, published 2005).

Broadly, the IC50 is the concentration at which inhibition is half-maximal. By inhibition is commonly meant the drop in the measured response relative to a control, in per cent.

“And” between values parts separate entries of the source, which are not always exact repeats. Equal values may be shown once.

One experiment deals with T1, COX-2 (Mus musculus, UniProt Q05769).
T1 construct: endogenous in cells; host or cells: RAW264.7 macrophage cells, LPS-stimulated
T1 sequence (Q05769 18-604): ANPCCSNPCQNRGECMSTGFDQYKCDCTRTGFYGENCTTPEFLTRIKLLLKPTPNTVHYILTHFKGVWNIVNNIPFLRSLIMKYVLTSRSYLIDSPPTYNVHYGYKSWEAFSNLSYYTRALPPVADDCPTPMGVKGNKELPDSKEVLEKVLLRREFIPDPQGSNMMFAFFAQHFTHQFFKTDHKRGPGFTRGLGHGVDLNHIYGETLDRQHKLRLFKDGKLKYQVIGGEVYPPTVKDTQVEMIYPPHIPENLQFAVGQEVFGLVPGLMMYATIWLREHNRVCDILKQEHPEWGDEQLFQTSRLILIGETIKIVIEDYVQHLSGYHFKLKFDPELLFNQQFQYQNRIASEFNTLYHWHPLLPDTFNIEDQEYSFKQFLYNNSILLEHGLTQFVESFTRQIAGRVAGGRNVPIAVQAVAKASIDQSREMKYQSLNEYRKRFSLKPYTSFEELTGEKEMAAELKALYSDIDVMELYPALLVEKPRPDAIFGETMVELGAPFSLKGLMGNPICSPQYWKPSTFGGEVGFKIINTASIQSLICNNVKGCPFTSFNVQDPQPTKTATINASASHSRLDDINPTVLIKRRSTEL
The experiment is described as follows: Inhibition of LPS-induced COX-2 activity (PGE2 production) in RAW264.7 macrophage cells. It is filed as cell-based. As to conditions: LPS 1 μg/ml, 16 hr. As for the experimental part: If a cell was treated with LPS, the activity of COX-2 increases. On the basis of this fact, to investigate the effect of xanthorrhizol on LPS-induced COX-2 activity, the quantity of PGE2 released from cells was measured as follows.
RAW264.7 macrophage cells were maintained in DMEM supplemented with penicillin-streptomycin and 10% FBS at 37° C., in 5% CO2 of humidified air. The cells (10×10^5 cells/ml, 200 μl) were allowed to adhere for 4 hr in the presence of aspirin (500 μM) in a 96-well culture plate to inhibit irreversibly COX activity in cells, washed 3 times with media, and then incubated in the fresh medium with 1 μg/ml of LPS. Xanthorrhizol was simultaneously added to each well. After an additional 16 hr incubation, the media were recovered and analyzed by PGE2 enzyme immunometric assay. The medium recovered from each well was added to each well attached anti-PGE2 antibody (Amersham Life Science, Arlington Heights, Ill.) with PGE2-acetylcholineesterase tracer, incubated for 18 hr at room temperature and then washed five times with 0.05% Tween 20-phosphate buffer solution. […] Absorbance at 405 nm was measured. PGE2 in each medium treated with xanthorrhizol was quantified in calibration curve graphed with standard PGE2. […] The percentage inhibition was expressed as [1-(PGE2 level of sample/PGE2 level of vehicle treated−control)]×100.

The target of the next experiment is T2, iNOS (Mus musculus, UniProt P29477).
T2 construct: endogenous in cells; host or cells: RAW264.7 macrophage cells, LPS-stimulated
T2 sequence (P29477 1-1144): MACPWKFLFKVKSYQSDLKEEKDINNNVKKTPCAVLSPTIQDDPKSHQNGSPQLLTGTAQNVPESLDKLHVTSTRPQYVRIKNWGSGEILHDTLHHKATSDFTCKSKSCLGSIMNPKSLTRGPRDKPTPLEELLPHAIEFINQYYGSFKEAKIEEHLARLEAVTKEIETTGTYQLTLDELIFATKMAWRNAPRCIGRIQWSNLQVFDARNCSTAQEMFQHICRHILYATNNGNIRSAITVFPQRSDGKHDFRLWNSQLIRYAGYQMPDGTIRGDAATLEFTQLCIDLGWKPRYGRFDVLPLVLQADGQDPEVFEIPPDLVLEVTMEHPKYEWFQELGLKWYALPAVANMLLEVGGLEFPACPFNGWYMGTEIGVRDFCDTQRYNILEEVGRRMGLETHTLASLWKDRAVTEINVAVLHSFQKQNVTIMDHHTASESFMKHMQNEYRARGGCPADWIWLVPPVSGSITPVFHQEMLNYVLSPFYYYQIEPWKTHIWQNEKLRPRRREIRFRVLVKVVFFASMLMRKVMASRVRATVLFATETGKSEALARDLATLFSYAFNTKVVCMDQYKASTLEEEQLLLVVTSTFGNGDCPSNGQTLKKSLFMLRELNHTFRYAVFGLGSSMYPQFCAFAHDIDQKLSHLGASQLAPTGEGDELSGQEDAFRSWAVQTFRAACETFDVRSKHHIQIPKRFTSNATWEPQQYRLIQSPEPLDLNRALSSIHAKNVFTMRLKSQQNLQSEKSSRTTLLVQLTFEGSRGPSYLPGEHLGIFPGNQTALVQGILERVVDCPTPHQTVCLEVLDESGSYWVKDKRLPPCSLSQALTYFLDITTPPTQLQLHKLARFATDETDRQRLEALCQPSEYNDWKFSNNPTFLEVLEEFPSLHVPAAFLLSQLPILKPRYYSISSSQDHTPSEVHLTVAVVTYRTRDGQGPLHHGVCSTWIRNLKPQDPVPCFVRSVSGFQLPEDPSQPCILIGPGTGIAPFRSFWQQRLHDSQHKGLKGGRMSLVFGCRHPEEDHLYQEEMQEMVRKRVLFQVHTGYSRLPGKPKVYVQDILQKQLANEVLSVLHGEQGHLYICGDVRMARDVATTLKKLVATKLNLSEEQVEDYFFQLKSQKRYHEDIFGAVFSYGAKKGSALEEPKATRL
The experiment is described as follows: Inhibition of LPS-induced iNOS activity (nitric oxide production) in RAW264.7 macrophage cells. In kind it is cell-based. As to conditions: LPS 1 μg/ml, 20 hr. As for the experimental part:
The effect of xanthorrhizol on iNOS activity induced by LPS was measured. RAW264.7 macrophage cells were maintained in DMEM supplemented with penicillin-streptomycin and 10% FBS at 37° C., in 5% CO2 of humidified air. The cells in 10% FBS-DMEM without phenol red media were plated in 24-well plates (8×10^5/ml), and then incubated for 4 hr. The cells were replaced with new media, and incubated in the medium with 1 μg/ml of LPS and xanthorrhizol. After an additional 20 hr incubation, the media were removed and analyzed for nitrite accumulation as an indicator of NO production by the Griess reaction. 150 μl of Griess reagent were added to 100 μl of each supernatant from LPS and/or xanthorrhizol treated cells in triplicate. The plates were incubated for 10 min, and were read at 570 nm against a standard curve of NaNO2. The percentage inhibition was expressed as [1−(NO level of sample/NO level of vehicle treated−control)]×100.

Consider `CC(C)=CCC[C@@H](C)c1ccc(C)c(O)c1` [xanthorrhizol], for which the IC50 was 321 nM and 320 nM on COX-2; 4630 nM on iNOS (read-out: IC50, LPS-induced iNOS activity (NO) (converted)). Moreover, at COX-2 (concentration of not less than 1 μg/ml), the “percentage inhibition of LPS-induced PGE2 production (COX-2 activity)” value is “not less than 98%”. Moreover, the inhibition at 10 µg/mL at iNOS (RAW264.7, 10 μg/ml, read-out: percentage inhibition of LPS-induced nitric oxide production (iNOS activity)) was at least 99%.
